Experimental data from patent US20240400986A1, “MEMBRANE BOUND COMPOSITIONS AND METHODS RELATING TO SAME” (FLAGSHIP PIONEERING INNOVATIONS VII, LLC, priority 2021, published 2024).
Where a name gives a salt, the structure may show the parent alone. Read-outs that look alike come from different tables or passages of the source.

What was measured:
[1] = test system: neuronal cell line derived from human neuroblastoma; assay: Small molecule compound screen of gigasome production in neuronal monocultures; conditions: for Fold Change of Gigasomes Produced vs. DMSO / Number of Gigasomes Produced: neuronal cells, 24 hours; for fold induction at 0.01 µM / fold induction at 10 µM / fold induction at 0.1 µM / fold induction at 1 µM: Homo sapiens, read-out: Fold Change of Gigasomes Produced vs. DMSO
[2] = test system: cardiomyocytic cell line derived from human ventricular heart tissue; assay: Cell viability in cardiomyocyte compound screen (CellTiter-Glo); format: cell-based
Excerpt: Cells were stained with Hoechst 34580, CellTracker Green/CellMask Green Actin and MitoTracker Deep Red to detect nuclear material, cytoplasm/F-actin, and mitochondria, respectively, and cultured in poly-L-lysine-coated 96-well glass bottom plates at 15,800 cells/cm^2 and allowed to adhere overnight. For the screening, a total of 100 randomly organized compounds (TargetMol) were divided in 5 groups. Each group included an untreated condition, a vehicular DMSO control, and a known high-gigasome producing condition to comparatively study gigasome production rates. As a cell death control group, 500 nM Staurosporine was added to induce apoptosis. Cultures were incubated for 24 hours under gigasome inducing conditions at concentrations ranging between 10 nM and 10,000 nM. […] Cells remaining in the 96-well plates were assessed for viability using CellTiter-Glo (Promega).

[3] = test system: neuronal cell line derived from human neuroblastoma
Description: For the screening, a total of 99 compounds (TargetMol) were divided in 5 groups. Each group included an untreated condition, a vehicular DMSO control, and a known high-gigasome producing condition to comparatively study gigasome production rates. As a cell death control group, 500 nM Staurosporine was added to induce apoptosis. Cultures were incubated for 24 hours under gigasome inducing conditions at concentrations ranging between 10 nM and 10,000 nM. Before the end of the treatment, live neuronal cultures were imaged. The Zeiss ZEN Blue software was used to distribute imaging fields of view (positions) to create an unbiased imaging sample of a well. 5 images were taken using a Zeiss LSM 900 confocal microscope. […] The BioApps ZEN software package was used to perform cell nucleus segmentation and counting. After 24 hours, gigasomes were harvested from the cell culture media by gently removing from the top of each 96-well ⅔ of the total volume without disturbing the cell layer (containing the settled gigasomes) and by adding to each well the same amount of PBS. […] Cells remaining in the 96-well plates were assessed for viability using CellTiter-Glo (Promega).

[4] = test system: cardiomyocytic cell line derived from human ventricular heart tissue; assay: Small molecule compound screen of gigasome production in cardiomyocytic monocultures;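 for all read-outs here: gigasomes shed into the culture medium were imaged by confocal microscopy and counted as round particles lacking nuclear signal, extrapolated to the whole well, fold change is relative to DMSO vehicle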; conditions: for fold induction at 0.1 µM / fold induction at 0.01 µM / fold induction at 1 µM / fold induction at 10 µM: Homo sapiens, Cardiomyocyte, read-out: Fold Change of Gigasomes Produced vs. DMSO
Description: For the screening, a total of 100 randomly organized compounds (TargetMol) were divided in 5 groups. Each group included an untreated condition, a vehicular DMSO control, and a known high-gigasome producing condition to comparatively study gigasome production rates. As a cell death control group, 500 nM Staurosporine was added to induce apoptosis. Cultures were incubated for 24 hours under gigasome inducing conditions at concentrations ranging between 10 nM and 10,000 nM. […] The Zeiss ZEN Blue software was used to distribute imaging fields of view (positions) to create an unbiased imaging sample of a well. 5 images were taken using a Zeiss LSM 900 confocal microscope. […] The BioApps ZEN software package was used to perform cell nucleus segmentation and counting. After 24 hours, gigasomes were harvested from the cell culture media by gently removing from the top of each 96-well ⅔ of the total volume without disturbing the cell layer (containing the settled gigasomes) and by adding to each well the same amount of PBS containing 0.5 mM EDTA. The wells were washed twice gently, and the gigasome-containing media/0.5 mM EDTA PBS wash was transferred into the well of a 384-well glass bottom plate. Cells remaining in the 96-well plates were assessed for viability using CellTiter-Glo (Promega).
For gigasome analysis in 384-well plates, the Zeiss ZEN Blue software was used to distribute positions to create an unbiased imaging sample of a well. 6 images per well were taken using a Zeiss LSM 900 confocal microscope. […] A watershed binary segmentation step was performed to separate grouped objects. For each particle in the mask, characteristic parameters of the particle were calculated and saved. […] Particles of interest were identified by thresholding by area and circularity. […] Circularity, defined by the formula 4pi(area/perimeter^2, was set to be between 0.8, where a value of 1.0 is a perfect circle, and a value of 0 is a line. Gigasomes were identified from the particles of interest by thresholding by mean nuclear signal. The nuclear signal threshold was set using a value equal to one quarter of a threshold value calculated by the Li auto-threshold algorithm applied to the distribution of all particles of interest. Particles of interest with nuclear signal below this value were considered “negative” for nuclear material and were identified as gigasomes. A sampling factor was calculated to extrapolate the total quantity of a type of object (particles, particles of interest, gigasomes) in the well. The sampling factor was the percentage of the well's area that was imaged. […] In some experiments, the number of cells in the cell cultures were estimated with a cell counter. […] The normalized quantity or distribution of objects was described as a quantity or distribution of objects per 1000 cells.

[5] = Table 22, dose 100 nM, cardiomyocytes, 24 hours
[6] = neuronal cells, dose 10 nM, 24 hours
[7] = neuronal cells, dose 100 nM, 24 hours
[8] = neuronal cells, dose 1000 nM, 24 hours
[9] = Table 22, dose 1000 nM, cardiomyocytes, 24 hours
[10] = Table 22, dose 10000 nM, cardiomyocytes, 24 hours
[11] = neuronal cells, dose 10000 nM, 24 hours
[12] = Table 22, dose 10 nM, cardiomyocytes, 24 hours
[13] = Table 23 (down-regulators), dose 10 nM, cardiomyocytes
[14] = Table 23 (down-regulators), dose 100 nM, cardiomyocytes
[15] = Table 23 (down-regulators), dose 1000 nM, cardiomyocytes
[16] = Table 23 (down-regulators), dose 10000 nM, cardiomyocytes

Row | Structure (SMILES) | Number of Gigasomes Produced ([1]; dose 10 nM) | Number of Gigasomes Produced ([1]; dose 100 nM) | Number of Gigasomes Produced ([1]; dose 1000 nM) | Viability [2, 5] | Viability [3, 6] | Viability [3, 7] | Viability [3, 8] | Number of Gigasomes Produced [4, 5] | Number of Gigasomes Produced ([1]; dose 10000 nM) | Viability [3, 11] | fold induction at 0.01 µM ([1]; 24 h) | fold induction at 10 µM ([1]; 24 h) | fold induction at 0.1 µM ([4]; 24 h) | fold induction at 0.01 µM ([4]; 24 h) | fold induction at 1 µM ([4]; 24 h) | Number of Gigasomes Produced [4, 13] | Number of Gigasomes Produced [4, 14] | Number of Gigasomes Produced [4, 15] | Number of Gigasomes Produced [4, 16] | other results
1 | COc1ccc(C[C@H]2NC[C@H](O)[C@H]2OC(C)=O)cc1 [Anisomycin] | <35 | 65-75 | 65-75 | 50-75% | 100% | >75% | 50-75% | 150-175 | – | – | – | – | – | – | – | – | – | – | – | Fold Change of Gigasomes Produced vs. DMSO ([1]; dose 10 nM): 1.0-1.25; Fold Change of Gigasomes Produced vs. DMSO ([1]; dose 100 nM): 1.75-2.0; Fold Change of Gigasomes Produced vs. DMSO ([1]; dose 1000 nM): 1.75-2.0; Fold Change of Gigasomes Produced vs. DMSO [4, 5]: 1.25-1.5
2 | CO/C1=C\C(C)=C\[C@@H](C)[C@@H](O)[C@@H](C)C/C(C)=C/C=C/[C@H](OC)[C@@H]([C@@H](C)[C@@H](O)[C@H](C)[C@@]2(O)C[C@@H](O)[C@H](C)[C@@H](C(C)C)O2)OC1=O [Bafilomycin A1, reference compound] | 85-95 | 105-115 | >115 | >75% | >75% | 100% | >75% | 225-250 | >115 | >75% | – | – | – | – | – | – | – | – | – | Fold Change of Gigasomes Produced vs. DMSO ([1]; dose 10 nM): 1.75-2.0; Fold Change of Gigasomes Produced vs. DMSO ([1]; dose 100 nM): 2.0-3.0; Fold Change of Gigasomes Produced vs. DMSO ([1]; dose 1000 nM): 2.0-3.0; Fold Change of Gigasomes Produced vs. DMSO ([1]; dose 10000 nM): 3.0-4.0; Viability [2, 9]: >75%; Viability [2, 10]: >75%; Fold Change of Gigasomes Produced vs. DMSO [4, 5]: 1.5-1.75; Fold Change of Gigasomes Produced vs. DMSO [4, 9]: 1.75-2.0; Number of Gigasomes Produced [4, 9]: 250-275; Fold Change of Gigasomes Produced vs. DMSO [4, 10]: 1.75-2.0; Number of Gigasomes Produced [4, 10]: 250-275
3 | C=C(C)[C@@H]1CC[C@]2(CO)CC[C@]3(C)[C@H](CC[C@@H]4[C@@]5(C)CC[C@H](O)C(C)(C)[C@@H]5CC[C@]43C)[C@@H]12 [Betulin] | 45-55 | – | – | 100% | 100% | – | – | 175-200 | 35-45 | 100% | 1.25 to 1.5 | 1 to 1.25 | 1.5 to 1.75 | – | – | – | – | – | – | –
4 | C[C@H]1CCC/C=C/[C@@H]2C[C@H](O)C[C@H]2[C@H](O)/C=C/C(=O)O1 [Brefeldin A] | 45-55 | – | – | – | 100% | – | – | – | – | – | – | – | – | – | – | – | – | – | – | Fold Change of Gigasomes Produced vs. DMSO ([1]; dose 10 nM): 1.5-1.75; Viability [2, 12]: >75%; Fold Change of Gigasomes Produced vs. DMSO [4, 12]: 1.25-1.5; Number of Gigasomes Produced [4, 12]: 250-275
5 | Cn1cnc(N)c2ncnc1-2 [Compound 3-Methyladenine, 3-Methyladenine] | 45-55 | 45-55 | 35-45 | – | 100% | 100% | 100% | – | – | – | 1.5 to 1.75 | – | 1.25 to 1.5 | 1.25 to 1.5 | 0.75 to 1 | >150 | >150 | 120-135 | 90-105 | fold induction at 0.1 µM ([1]; 24 h): 1.5 to 1.75; fold induction at 1 µM ([1]; 24 h): 1.25 to 1.5; Viability [2, 13]: >75%; Viability [2, 14]: >75%; Viability [2, 15]: >75%; Viability [2, 16]: >75%; fold induction at 10 µM ([4]; 24 h): 0.5 to 0.75
6 | Nc1ccccc1NC(=O)c1ccc(CNC(=O)OCc2cccnc2)cc1 [Entinostat, reference compound] | – | – | – | – | – | – | – | 300-325 | 35-45 | – | – | 1.25 to 1.5 | 1.75 to 2 | – | – | – | – | – | – | Viability ([2]; human, 24 h, 100 nM): >75%; Viability ([3]; human, 24 h, 10000 nM): >75%
7 | CC[C@@]1([C@@H]2O[C@@H]([C@H]3O[C@@](O)(CO)[C@H](C)C[C@@H]3C)C[C@@H]2C)CC[C@H]([C@]2(C)CC[C@]3(C[C@H](O)[C@@H](C)[C@@H]([C@@H](C)[C@@H](OC)[C@H](C)C(=O)O)O3)O2)O1 [Monensin sodium salt] | <35 | 55-65 | – | >75% | >75% | >75% | – | 150-175 | 55-65 | 50-75% | 0.75 to 1 | 1.5 to 1.75 | 1.25 to 1.5 | 1.25 to 1.5 | 2 to 3 | – | – | – | – | fold induction at 0.1 µM ([1]; 24 h): 1.75 to 2; Viability [2, 12]: >75%; Viability [2, 9]: 50-75%; Number of Gigasomes Produced [4, 12]: 150-175; Number of Gigasomes Produced [4, 9]: 250-275
8 | O=c1ncn2nc(Sc3ccc(F)cc3F)ccc2c1-c1c(Cl)cccc1Cl [Neflamapimod] | 30-35 | 25-30 | 20-25 | – | 100% | >75% | 100% | – | 15-20 | 100% | 0.75 to 1 | 0.5 to 0.75 | 0.75 to 1 | 1 to 1.25 | 0.75 to 1 | 120-135 | 90-105 | 75-90 | 75-90 | fold induction at 0.1 µM ([1]; 24 h): 0.75 to 1; fold induction at 1 µM ([1]; 24 h): 0.5 to 0.75; Viability ([2]; human, 24 h, 10 nM): 100.0%; Viability ([2]; human, 24 h, 100 nM): 100.0%; Viability ([2]; human, 24 h, 1000 nM): >75%; Viability ([2]; human, 24 h, 10000 nM): 100.0%; fold induction at 10 µM ([4]; 24 h): 0.75 to 1
9 | CC(=O)O[C@H]1C(=O)[C@@]2(C)[C@H]([C@H](OC(=O)c3ccccc3)[C@]3(O)C[C@H](OC(=O)[C@H](O)[C@@H](NC(=O)c4ccccc4)c4ccccc4)C(C)=C1C3(C)C)[C@]1(OC(C)=O)CO[C@@H]1C[C@@H]2O [Paclitaxel] | 55-65 | – | – | – | – | – | – | – | – | – | 1.5 to 1.75 | – | – | 1.5 to 1.75 | – | – | – | – | – | Viability ([2]; human, 24 h, 10 nM): >75%; Viability ([3]; human, 24 h, 10 nM): >75%; Number of Gigasomes Produced [4, 12]: 150-175
10 | CCCCCCCCCCCCCCOc1ccc(C(=O)O)o1 [TOFA] | – | – | – | – | – | – | – | – | – | – | – | – | – | – | – | 120-135 | 105-120 | 105-120 | 75-90 | Viability [2, 13]: >75%; Viability [2, 14]: 100.0%; Viability [2, 15]: >75%; Viability [2, 16]: 100.0%; Fold Change of Gigasomes Produced vs. DMSO [4, 13]: 1.0-1.25; Fold Change of Gigasomes Produced vs. DMSO [4, 14]: 1.0-1.25; Fold Change of Gigasomes Produced vs. DMSO [4, 15]: 0.75-1.0; Fold Change of Gigasomes Produced vs. DMSO [4, 16]: 0.75-1.0
11 | CC1=C(O)C(=O)C=C2C1=CC=C1[C@@]2(C)CC[C@@]2(C)[C@@H]3C[C@](C)(C(=O)O)CC[C@]3(C)CC[C@]12C [Tripterin, reference compound] | – | – | 75-85 | >75% | – | – | >75% | <150 | – | – | – | – | – | – | – | – | – | – | – | Fold Change of Gigasomes Produced vs. DMSO ([1]; dose 1000 nM): 2.0-3.0; Viability [2, 9]: 50-75%; Fold Change of Gigasomes Produced vs. DMSO [4, 5]: 0.75-1.0; Fold Change of Gigasomes Produced vs. DMSO [4, 9]: 3.0-4.0; Number of Gigasomes Produced [4, 9]: 375-400
12 | COc1cc(O)c2c(c1)oc(=O)c1c3cc(O)c(O)cc3oc21 [Wedelolactone, reference compound] | – | – | – | – | – | – | – | – | – | – | – | – | 0.5 to 0.75 | 0.5 to 0.75 | 0.5 to 0.75 | 75-90 | 75-90 | 50-75 | <20 | gigasome production, fold-change compared to DMSO ([1]; Oleuropein across doses, Wedelolactone 10,000 nM, 24 h): < 0.2; Viability ([2]; human, 24 h, 10 nM): 100.0%; Viability ([2]; human, 24 h, 100 nM): 100.0%; Viability ([2]; human, 24 h, 1000 nM): >75%; Viability ([2]; human, 24 h, 10000 nM): >75%; fold induction at 10 µM ([4]; 24 h): < 0.25; downregulation of gigasome production ([4]; cardiomyocytes, doses 10-10,000 nM, 24 h): dose-dependent downregulation
